Data reported in a melting point compilation (Tetko et al.; mined from patent text by program, amines drawn as free bases though some values may be those of a salt).

Row | Compound | melting point [°C]
1 | COC(=O)c1cc(N)cs1 | 76 to 78
2 | Cc1c(-c2ccccc2)c(N2CC[C@H](N(C)C)C2)c2oc(-c3ccccc3N)nc2c1C#N | 259 to 263
3 | CCS(=O)(=O)Nc1cc(-c2ncnc(C(F)F)c2Cl)c(F)cc1Cl | 138 to 139
4 | COC(=O)CCCCCCCCC=CCCCCCCCCC(=O)OC | 44
5 | O=C(O)C(=O)Cc1ccsc1 | 203 to 204
6 | Cc1cc(Oc2c(Cl)cc(C(F)(F)F)cc2Cl)nn1C(=O)NC1CCCC1 | 90 to 92
7 | CCCc1ccc(-c2cc(F)c(-c3ccc(CCC)s3)c(F)c2)cc1 | 64
8 | CCCCCCCCCCCCCCOc1cc(OCCCCCCc2cccc(OCc3ccccc3)c2OCc2ccccc2)cc(C(=O)O)c1 | 75 to 77
9 | CC1=CC2=C(C)C3(CC3)C(C)(O)C(=O)C2=C1 (stereo not given) | 138 to 140
10 | CCCCCCCCCc1ccc(C(CCCC=O)C(=O)OC)cc1 (stereo not given) | 38 to 39
11 | O=C(O)Cc1ccc2c(c1)sc1ccccc12 | 174 to 176
12 | Cn1nc(-c2ccc(F)cc2)c(-c2ccncc2)c1C(O)CCc1ccccc1 (stereo not given) | 62 to 65
13 | Clc1cccc(Nc2ncnc(-c3ccnc(Cl)c3)n2)c1 | 178 to 180
14 | CCCCCCCCc1ccc(CCC(CO)(CO)NC(C)=O)cc1 | 66 to 68
15 | NC(=O)N1CCCN(NC(=O)c2cc(=O)c(O)c[nH]2)C1=O | 215 to 220
16 | O=C(Nc1ccccc1)c1cccc(Oc2cccc(C(F)(F)F)c2)n1 | 92 to 93
17 | COc1cc(-c2oc3ccccc3c(=O)c2OCC(O)CN2CCN(c3ccccc3)CC2)cc(OC)c1OC (stereo not given) | 170 to 171
18 | CC(=O)N1CCC(NC(=O)Nc2ccc(F)cc2)CC1 | 146 to 148
19 | O=C(O)CNC(=O)Cc1ccc(Cl)cc1S | 148 to 149
20 | O=C(O)c1cn([C@@H]2C[C@@H]2F)c2c(Cl)c(Cl)ccc2c1=O | 198 to 201
21 | COC(=O)C=Cc1ccc(Cl)c(C(F)(F)F)c1 | 71 to 73
22 | CS(=O)(=O)c1ccc(-c2cnn(CC(F)(F)F)c(=O)c2C2=CCCCC2)cc1 | 75 to 81
23 | CCOC(=O)C(CC)Sc1nc2c(c(=O)n(CCOC)c(=O)n2C)n1Cc1cccc(Br)c1 (stereo not given) | 58
24 | Cc1cc(C)c2c(c1)C(NC(=O)c1conc1C)CCC2 (stereo not given) | 57 to 58
25 | CN(C)Nc1c([N+](=O)[O-])cc(C(F)(F)F)c(Cl)c1[N+](=O)[O-] | 130 to 131
26 | O=C1CCC(Cc2ccc(Br)cc2)=C1O | 144 to 145
27 | CCOC(=O)C(NC(=O)CS(C)=O)C(=O)OCC (stereo not given) | 85 to 87

Row | Compound | melting point [°C]
28 | CC(=O)NC[C@H]1CN(c2ccc(N3CCC(O)(CC#N)CC3)c(F)c2)C(=O)O1 | 162 to 164
29 | O=C(O)c1ccc(OCCCCCCC2CC2)c(F)c1F | 100 to 108
30 | c1ccc2c(c1)cc1cnc(Nc3ccc(N4CCOCC4)cc3)nn12 | 205 to 210
31 | C(=C\c1nc(COc2ccc(CCCn3ccnc3)cn2)co1)/c1ccccc1 | 120 to 121
32 | COc1cc2c(cc1OC)C(COCCCl)OCCC2 (stereo not given) | 90 to 91
33 | CCOC(=O)Cc1csc(NC(N)=O)n1 | 173 to 174
34 | CCc1ccc2c(c1)C=Cc1cc(C)ccc1C2c1cn(-c2ccnc(NCC(=O)Nc3nc(CC(=O)O)cs3)n2)c(=O)[nH]c1=O (stereo not given) | 217
35 | Cc1ccccc1CC(C)(C)NC(C)(O)c1ccc(O)c(O)c1C (stereo not given) | 166 to 169
36 | COC(=O)c1cc(O)c2cc3c(O)cc(C(=O)OC)nc3c(C)c2n1 | 296
37 | CNc1nnc2ccc(-c3cccc(N(C)C(C)=O)c3)nn12 | 213 to 215
38 | COc1ccccc1CNc1ccc2cc(Nc3nc(C)cc(C)n3)ccc2n1 | 158
39 | COc1ccc(CNc2ccc(O)c(C(=O)O)c2)cc1 | 205 to 206
40 | O=C(NCCCn1ccnc1)C(c1ccccc1)c1ccccc1 | 136 to 138
41 | Cc1ccc(C(=O)c2ccc([N+](=O)[O-])cc2)cc1 | 122 to 123
42 | O=C(O)CCSC1c2cccc(O)c2C(=O)c2c(O)cccc21 | 152 to 153
43 | COC(=O)CCc1ccc(-n2c(C)cn(-c3ccc(C#N)cc3)c2=O)cc1 | 168 to 170
44 | O=C1C2C3C=CC(C4CC34)C2C(=O)N1c1ccc([N+](=O)[O-])cc1 (stereo not given) | 210 to 212
45 | CCn1cc(C(=O)O)c(=O)c2cc(F)c(N3CCN(S(=O)(=O)c4ccc(Cl)cc4)CC3)c(F)c21 | 231 to 233
46 | C=CCN1CCC=C(c2ccc(C(C)(C)CCCCCC)cc2O)C1 | 109 to 110
47 | COC(=O)CC1(CN=C=O)CCCCCC1 | 69 to 72
48 | COC(=O)C1CCc2nc(N)sc2C1 (stereo not given) | 148 to 168
49 | CCCCSc1cc(C(=O)O)cc(N)c1-c1ccccc1 | 143 to 144
50 | C#CCN(CCC12CC3CC(CC(C3)C1)C2)C(=O)NCCCc1ccncc1 | 152 to 154
51 | O=c1cc(C(F)(F)F)nc(Cl)n1-c1cc(Oc2ncccn2)c(Cl)cc1F | 132 to 134
52 | Cc1c(Cc2cc(=O)n(-c3cccc(C(F)(F)F)c3)[nH]2)c2cc(Cl)ccc2n1C(=O)c1ccc(Cl)cc1 | 81 to 83
53 | CC(=O)Nc1ccccc1-c1nc(C)c(-c2cccnc2)[nH]1 | 270 to 271
54 | CN(C)C1(c2cccc(O)c2)CCC(=O)CC1 | 175 to 177

The remaining lines, values ahead:

Row | melting point [°C] | Compound
55 | 236 | O=C(O)C=Cc1cc(=O)c(OCc2ccccc2)c[nH]1
56 | 187 to 195 | CCc1nc2c(C)cc(C)nc2n1Cc1cccc(C(=Cc2nnn[nH]2)c2ccccc2)c1
57 | 125 to 128 | CC1CC(=O)c2cc([N+](=O)[O-])c(Br)cc2O1 (stereo not given)
58 | 167 to 169 | O[C@@H]1CCN(c2ccc3nnn(Cc4ccc5ncccc5c4)c3n2)C1
59 | 60 to 65 | Nc1nc2c(s1)CCN(CC=Cc1ccc3[nH]ccc3c1)CC2
60 | 245 | O=C(O)c1cccc2cc3ccccc3cc12
61 | 230 to 233 | CC(=O)OC1(C(C)=O)C(C)CC2C3CCC4=CC(=O)C=CC4(C)C3=CCC21C (stereo not given)
62 | 156 to 158 | COc1cc2cc[nH]c2cc1OCCCN1CCC(c2noc3cc(F)ccc23)CC1
63 | 169 to 171 | CCOC(=O)c1nc2ccccc2n1[C@@H]1CC(C)(C)Oc2ccc(C#N)cc21
64 | 163 to 165 | CC(=O)n1c2ccccc2c2nc3ccccc3cc21
65 | 147 | c1ccc2c(c1)OCC(CN1CCC(CNc3nc4cnccc4s3)CC1)O2 (stereo not given)
66 | 266 to 269 | COC(=O)c1ccc(C=Cc2ccc([N+](=O)[O-])c(C#N)c2)cc1
67 | 80 | CC(C)(C)c1cccc(S(=O)(=O)n2c(CBr)cc3cc(C(F)(F)F)ccc32)c1
68 | 90 to 91 | CCOC(=O)CN1C(=O)C(N=[N+]=[N-])CCc2ccc(OC)cc21 (stereo not given)
69 | 153 to 154 | CC(=O)N[C@@H](CSC(C)=O)C(=O)NCCSC(C)=O
70 | 279 to 281 | CC1(C)CCOc2cc(C(=O)Nc3ccc(C(=O)O)cc3)ccc21
71 | 137 to 139 | COc1cc(C(C)C)c2c(c1)S(=O)(=O)N(COC(=O)c1c(C)noc1C)C2=O
72 | 128 to 130 | CCC(COC)Nc1nc(C)nc(Cl)c1N (stereo not given)
73 | 98 to 101 | C[C@]1(CN2CCN(C(=O)NC3CCCCC3)CC2)Cn2cc([N+](=O)[O-])nc2O1
74 | 158 to 161 | Cc1cccc(-c2[nH]c(C(C)C)nc2-c2cccc(-n3ccnc3)c2)n1
75 | 72 to 74 | COc1ccc(O)c(CC=Cc2ccccc2C#N)c1
76 | 248 to 250 | Cc1ccc(-n2nc(OC(=O)c3ccccc3)c3c(c2=O)Cc2ccc(Cl)cc2N3)cc1
77 | 122 to 124 | COC(=O)CCCS(=O)(=O)c1c(Cc2cccc3ccccc23)sc2c1c(=O)n(C)c(=O)n2CC(C)C

Row | melting point [°C] | Compound
78 | 151 | CC1(c2ccccc2NC(c2c(Cl)cccc2Cl)C2CC2)OCCO1 (stereo not given)
79 | 134 | O=S(=O)(N[C@H]1CC[C@H](CCN2CCC(c3cccc4c3CCO4)CC2)CC1)c1ccc(F)cc1
80 | 145 to 148 | Cc1cccc(C)c1NC(=O)CN1CCN(CCCC(c2ccc(F)cc2)c2ccc(F)cc2)CCN1
81 | > 300 | O=c1c2cc(-c3nnn[nH]3)ccc2sc2ncccc12
82 | 220 to 222 | CN1C(=O)C(C(=O)Nc2ccc(Cl)cc2)S(=O)(=O)c2ccccc21 (stereo not given)
83 | 106 to 112 | C[Si](C)(C)C#Cc1cnn(-c2ccnc3cc(Cl)ccc23)c1
84 | 139 to 140 | O=C(CC(=O)c1ccc(C(F)(F)F)cc1[N+](=O)[O-])c1ccc([N+](=O)[O-])cc1
85 | 245 to 246 | Cc1cc(-c2nc3cccnn3c2-c2ccnc(NC(=O)c3ccc(N(C)C)cc3)c2)ccc1F
86 | 154 to 156 | O=S1(=O)C(CN2CCCCC2)=Cc2ccc(Cl)cc21
87 | 179 to 182 | Nc1nc(Cl)c(Cl)nc1C=Nc1ccc(Cl)cc1
88 | 162 | O=S1(=O)c2cccc3cccc(c23)N1CCCN1CCC(c2c[nH]c3ccccc23)CC1
89 | 65 to 70 | CCN1CC(=O)N(C)c2cc(Nc3ncc(Cl)c(Nc4ccc(OC)c(CNCCO)c4)n3)c(OC)cc2C1
90 | 165 to 167 | Cc1cc(OC/C=C/c2ccc(C(C)C)cc2)c(C)c(C)c1NC=O
91 | 193 to 196 | NC(=O)CCN1CCC(CNc2ccc(Cl)cc2C(=O)Nc2ccc(Cl)cn2)CC1
92 | 101 to 102 | CN1C(=O)c2cscc2N(C)c2ccccc21
93 | 141 to 146 | CN1CC23CC(c4ccccc4C2C1=O)c1ccccc13 (stereo not given)
94 | 220 to 222 | Nc1nc(Cl)nc2c1ncn2[C@@H]1S[C@H](CO)[C@@H](O)[C@H]1O
95 | 61 to 63 | CCOC(=O)c1cnn(-c2cccc(Cl)c2)c1Cl
96 | 242 to 244 | CCCCc1nc(=O)c2cc(C=O)ccc2[nH]1
97 | 143 to 145 | O=c1[nH]c2cc(Cl)ccc2n1C1CCN(CC2=NOC(c3ccc(F)cc3)C2)CC1 (single isomer, unassigned; (-))
98 | 202 | O=S(=O)(c1cccc(-c2cc(-c3nc(-c4ccc(C(F)(F)F)cc4)cc(C(F)(F)F)n3)ccn2)c1)N1CCOCC1
99 | 127 to 129 | C/C(=C(\C#N)C(=S)/N=C/N(C)C)N1CCCN(c2ccc3c(c2)OCCO3)CC1
100 | 260 to 261 | Nc1ccc(S(=O)(=O)c2cc(-c3cccc(Cl)c3)nc(N3CCCC3)c2)cc1
